Substitutions are numbered along the chain they refer to. Counter-ions that a name gives are not always drawn. Like-named read-outs stand apart in the source and are kept apart here.
Assays:
Format in all cases: biochemical
[1] = molecular target: T1, purified human MAO A Ser209Glu mutant (Homo sapiens, UniProt P21397, S209E); assay: Competitive inhibition of purified human MAO A Ser209Glu mutant; settings: for lower affinity for the Ser209Glu mutant than for the wild-type enzyme: purified Ser209Glu vs purified wild-type MAO A
T1 sequence (P21397 1-527 S209E): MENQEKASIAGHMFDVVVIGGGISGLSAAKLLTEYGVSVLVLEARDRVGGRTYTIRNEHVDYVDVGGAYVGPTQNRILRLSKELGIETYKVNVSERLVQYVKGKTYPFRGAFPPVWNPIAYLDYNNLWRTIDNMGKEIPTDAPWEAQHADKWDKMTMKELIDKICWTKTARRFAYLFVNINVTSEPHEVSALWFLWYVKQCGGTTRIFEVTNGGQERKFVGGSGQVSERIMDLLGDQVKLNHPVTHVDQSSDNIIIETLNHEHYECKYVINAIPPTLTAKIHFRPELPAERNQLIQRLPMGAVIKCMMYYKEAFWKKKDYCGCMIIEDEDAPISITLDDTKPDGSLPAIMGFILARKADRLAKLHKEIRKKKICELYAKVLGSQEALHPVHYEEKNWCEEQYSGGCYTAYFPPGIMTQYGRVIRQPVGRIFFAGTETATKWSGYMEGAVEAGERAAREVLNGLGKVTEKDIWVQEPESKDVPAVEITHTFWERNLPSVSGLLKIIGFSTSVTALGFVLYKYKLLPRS

[2] = molecular target: T2, membrane-bound wild-type MAO A (Homo sapiens, UniProt P21397); assay: Steady-state kinetics of membrane-bound wild-type MAO A; settings: 50 mM potassium phosphate pH 7.5
T2 sequence (P21397 1-527): T1 sequence (P21397 1-527 S209E) with E209S

[3] = molecular target: T3, membrane-bound MAO A Ser209Glu mutant (Homo sapiens, UniProt P21397, S209E); assay: Steady-state kinetics of membrane-bound MAO A Ser209Glu mutant; settings: 50 mM potassium phosphate pH 7.5
T3 sequence (P21397 1-527 S209E): T1 sequence (P21397 1-527 S209E)

[4] = molecular target: T4, purified wild-type human MAO A (Homo sapiens, UniProt P21397); assay: Competitive inhibition of purified wild-type human MAO A
T4 sequence (P21397 1-527): T1 sequence (P21397 1-527 S209E) with E209S

[5] = molecular target: T5, purified human MAO A Ser209Ala mutant (Homo sapiens, UniProt P21397, S209A); assay: Competitive inhibition of purified human MAO A Ser209Ala mutant
T5 sequence (P21397 1-527 S209A): T1 sequence (P21397 1-527 S209E) with E209A

Cc1nccc2c1[nH]c1ccccc12 [Harmane]
binding to the Ser209Glu mutant compared with wild-type or Ser209Ala MAO A ([1]; purified enzymes): much more weakly

O=C1Nc2ccccc2C1=O [Isatin, isatin]
lower affinity for the Ser209Glu mutant than for the wild-type enzyme [1]: 20 fold

CC(C)(N)Cc1ccccc1 [Phentermine, phentermine]
lower affinity for the Ser209Glu mutant than for the wild-type enzyme [1]: 13 fold

NCCc1ccccc1 [Phenylethylamine, β-phenylethylamine]
Km [2]: 470 ± 40 µM | kcat [2]: 0.8095 ± 0.0177 s⁻¹ | Km [3]: 850 ± 70 µM | kcat [3]: 1.068 ± 0.0238 s⁻¹

Cc1ccc2c(c1)c1c3n2CCNC3CCC1 (stereo not drawn) [Pirlindole Mesylate, pirlindole mesylate]
Ki [4]: 0.92 ± 0.04 µM | Ki [5]: 0.88 ± 0.18 µM | Ki [1]: 21.5 ± 1.36 µM

c1cc2c(cc1C1CCCCC1)c1c3n2CCNC3CCC1 (stereo not drawn) [Tetrindole Mesylate, tetrindole mesylate]
Ki ([4]; competitive inhibition constant, purified wild-type human MAO A): 5.27 ± 0.24 µM

C[C@H](N)Cc1ccccc1 [d-Amphetamine, d-amphetamine]
Ki [4]: 3.69 ± 0.45 µM | Ki [5]: 4.72 ± 0.63 µM | Ki [1]: 609 ± 31.6 µM | lower affinity for the Ser209Glu mutant than for the wild-type enzyme [1]: 160 fold

— publication PMC2753600 (The FEBS journal, 2009)
